Where no end group is shown, it is not given here.
Assays:
[1] = test system: Vrn.6 cells stably transfected with pRGC ΔFosLacz, a p53 responsive β-galactosidase reporter; experiment: p53 responsive β-galactosidase reporter after microinjection into Vrn.6 cells; type: cell-based, rat; settings: Vrn.6 cells having overexpressed MDM2; injected intranuclearly; 24 hours
Description: (§3) Antibodies or DNA encoding the described binding elements may be microinjected into Vrn.6 cells, a transformed rat thyroid epithelial cell line and T22 cells, a mouse prostrate derived cell line both cell lines being stably transfected with pRGC ΔFosLacz, a p53 responsive β-galactosidase reporter. […] Vrn.6 tolerate high levels of wild type p53 and overexpress MDM2 at a protein level. T22 cells typically contain low levels of p53 and mdm2.
(§4) For microinjection, cells may be seeded into tissue culture dishes and grown to 60–70% confluence. Microinjection may be performed using an Eppendorfer microinjection system (Microinjector 5242, Micromanipulator 5170) mounted to an Axiovert light microscope (Zeiss) having a heated stage.
(§5) Purified mouse monoclonal antibodies 3G5 and 4B2 may be injected intranuclearly and cytoplasmicly in PBS at a concentration of 1.3 mg/ml. Plasmid DNA encoding for TIP 12/1, TIP wt and Trx may be injected intronuclearly in water at a concentration of 0.25 mg 7 ml. Following microinjection, fresh medium may be added to the cell cultures and the cultures further incubated for 24 hours.
(§6) To detect β-galactosidase activity, cells may be washed with PBS and fixed with 2% formaldehyde, /0.2% glutaraldehyde in PBS for 5 minutes on ice. […]

[2] = test system: T22 cells stably transfected with pRGC ΔFosLacz, a p53 responsive β-galactosidase reporter; experiment: p53 responsive β-galactosidase reporter after microinjection into T22 cells; type: cell-based, mouse; settings: low level p53 and mdm2, 24 hours
Description: as §3, §4, §5, §6

[3] = test system: MCF-7 cells, pRGCΔFosLacZ reporter; experiment: transient transfection, p53 reporter induction in MCF-7 cells; type: cell-based; settings: transfected plasmid DNA, 48 hours after transfection
Procedure: (§1) The OSA cell line contains a highly elevated mdm2 level due to gene amplification (Florence et al., 1994). The U2-OS cell line has no gene amplification for mdm2 but has elevated levels of dmd2-mRNA (Florence et al. 1994). The MCF-7 cell line contains heterogenously expressed low levels of wild type p53 and no reported mdm2 elevation.
(§2) For transient transfection and reporter induction, cells are seeded into 6 well plates at 1.5×10^6 cell per well. They are grown to a density of 80% confluence and transfected using different Lipophilic reagents such Lipofectin and Lipofectamin from Promega or Dosper and Dotap from Boehringer. […] Two to four hours after transfection, complete medium is added. Forty-eight hours after transfection β-galactosidase activity is measured using […] (Boehringer) as a substrate. Cells are scraped into PBS and centrifuged. Pellets from each well are dissolved in 50 μl of Reporter Lysis buffer (Promega) and incubated on ice for 15 minutes. Soluble Lysates are incubated with CPRG in 100 mM phosphate buffer, pH 7.0. Optical Density at 595 nm is measured 1 to 24 hours later.

[4] = test system: U2-OS cells, pRGCΔFosLacZ reporter; experiment: transient transfection, p53 reporter induction in U2-OS cells; type: cell-based; settings: transfected plasmid DNA, 48 hours after transfection
Procedure: as §1, §2

[5] = test system: OSA cells, pRGCΔFosLacZ reporter; experiment: transient transfection, p53 reporter induction in OSA cells; type: cell-based, human; settings: highly elevated mdm2, transfected plasmid DNA, 48 hours after transfection
Procedure: as §1, §2

[6] = test system: GST-hdm2, MBP-hdm2 or TRX-hdm2; experiment: solution phase phage ELISA with hdm2 fusion proteins; type: binding, human; settings: phages preincubated in solution with GST-hdm2, MBP-hdm2 or TRX-hdm2
GST-hdm2, MBP-hdm2 or TRX-hdm2, sequence (Q00987 1-188 limits assumed): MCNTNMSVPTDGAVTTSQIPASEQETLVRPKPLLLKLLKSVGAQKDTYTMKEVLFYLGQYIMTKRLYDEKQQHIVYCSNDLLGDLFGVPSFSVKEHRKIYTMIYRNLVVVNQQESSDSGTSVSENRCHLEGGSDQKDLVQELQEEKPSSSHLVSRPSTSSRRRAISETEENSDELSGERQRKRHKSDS
Procedure: GST-, MBP-, TRX-hdm2 or baculovirus produced mdm2 (Sf9 cell extract) diluted in PBST-M are reacted in solution with hdm2- or GST-binding phage overnight at 4° C. Simultaneously, ELISA plates are coated with 100 μl Rabbit anti-mouse antibodies (DAKO, Z0259) 1:1000 in 0.1 M NaHCO3, pH 9.6. The plates are blocked as usual and incubated with monoclonal anti-mdm2 antibodies (hybridoma supernatant 1:5 diluted in PBST-M) for one hour. For the titration ELISA, purified SMP14 (8 μg/ml in PBS) is used to coat the plate directly. In either case, the pre-incubated phage-hdm2 samples are transfered to the coated and blocked plate and incubated for two hours at room temperature. Bound phages are detected as described.
For these experiment clones BB2/BB11 (GST binding control phage) and BB3/BB10 (hdm2 phage) are chosen. Phages are preincubated in solution with GST-hdm2, MBP-hdm2 or TRX-hdm2 and the phage-hdm2 complexes are transfered to wells which contain different monoclonal anti-mdm2 antibodies bound to the solid phase via anti-mouse antibodies. Bound phages are detected. […] All three anti-mdm2 antibodies used (SMP 14, 4B2, 3G5) are able to bind to hdm2 complexed with GST-phage. Antibody SMP14 is commercially available and described in Picksley et al., Oncogene 9, 2523–2529 (1994) incorporated by reference above. […] Phage-hdm2 complexes are pulled down by solid phase SMP14 and bound phages are detected. […]

Row | Substance | β-galactosidase response (blue stained cells) of p53 reporter [1] | β-galactosidase response (blue stained cells) of p53 reporter [2] | induction of the p53 reporter (β-galactosidase activity) [3] | induction of the p53 reporter (β-galactosidase activity) [4] | induction of the p53 reporter (β-galactosidase activity) [5] | binding of phage to hdm2 fusion proteins [6]
1 | Trx: negative control binding element comprising thioredoxin without a peptide insert [reference compound] | not a positive response | No response |  |  |  | 
2 | TIP 12/1: binding element: E. coli thioredoxin presenting the peptide insert of clone 12/1 in its active site, delivered as encoding plasmid DNA (MPRFMDYWEGLN; not fully specified; printed as M-P-R-F-M-D-Y-W-E-G-L-N) |  | strong positive response | most induction | most induction | Lower induction | 
3 | PAFSRFWSADLSAGAH [BB3] |  |  |  |  |  | recognizes all three hdm2 fusion proteins
